Reference: patent publication US9593305B2, “Differentiation of pluripotent stem cells” (Janssen Biotech, Inc., priority 2008, dated 2017)

Test system: H1 human embryonic stem cells
Assay: Analogue screening in combination with only GDF-8, SOX17 (Example 21, Tables 18 and 19)
Format: cell-based
Set-up: Sox17 Expression: % of positive control / Cell Number: % of positive control: tested at 2.5 µM
Conditions: for Sox17 Expression, % of positive control: 2.5 μM compound with 200 ng/ml GDF-8, four days, Table 19 hits; for Cell Number: Average Total Cell Number / Sox17 Expression: Average Total Intensity / Cell Number: % of positive control / Sox17 Expression: % of positive control: compound in combination with GDF8; for Cell Number: Average Total Cell Number / Sox17 Expression: Average Total Intensity: four assay plates; for Cell Number: % of positive control / Sox17 Expression: % of positive control: relative to Activin A/Wnt3a of the same plate
Method in brief: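 H1 human ES cells treated four days with 200 ng/ml GDF-8 plus 2.5 μM compound (day 1, 0.5% FCS), GDF-8 alone in 2% FCS on day 3; triplicates. Fixed cells immunostained for SOX17 with Hoechst counterstain, imaged at 15 fields/well; total SOX17 intensity normalized to activin A/Wnt3a positive control.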

| SMILES | Sox17 Expression, % of positive control | Cell Number: Average Total Cell Number | Sox17 Expression: Average Total Intensity | Cell Number: % of positive control | Sox17 Expression: % of positive control |
| --- | --- | --- | --- | --- | --- |
| O=C1CCN2CCN(CC2)Cc2cc(Cl)cc(c2)Nc2ncnc(n2)-c2cncc(c2)CCCN1 [Compound 34, 5-Chloro-1,8,10,12,16,22,26,32-octaazapentacyclo[24.2.2.1˜3.7˜0.1˜9,13˜0.1˜14.18˜]tritriaconta-3(33), 4,6,9(32), 10,12,14(31), 15,17-nonaen-23-one] | 68.0 % of positive control |  |  |  |  |
| O=C1NCCCc2cncc(c2)-c2ncnc(n2)Nc2cccc(c2)CN2CCC1CC2 [Compound 22, 1,8,10,12,16,22,30-Heptaazapentacyclo[22.2.2.1-3,7˜0.1˜9,13˜1-14,18˜]hentriaconta-3(31), 4,6,9(30), 10,12,14(29), 15,17-nonaen-23-one] | 27.4 % of positive control | 6727 | 1.06E+08 | 42.4% | 29.8% |
| CN1CCC(=O)NCCCNc2cccc(c2)-c2ncnc(n2)Nc2cccc(c2)C1 [Compound 21, 14-Methyl-3,5,7,14,18,22,29-heptaazatetracyclo[21.3.1.1˜2,6˜0.1˜8,12˜]nonacosa-1(27), 2(29), 3,5,8(28), 9,11,23,25-nonaen-17-one] |  | 371 | 2.36E+06 | 2.3% | 0.7% |
| CCN1CC(=O)NCCCc2cc(ccn2)-c2ncnc(n2)Nc2cc(Cl)cc(c2)C1 [Compound 14, 10-Chloro-14-ethyl-3,5,7,14,17,22,27-heptaazatetracyclo[19.3.1.1˜2,6˜1˜8,12˜]heptacosa-1(25), 2(27), 3,5,8(26), 9,11,21,23-nonaen-16-one] |  | 274 | 1.56E+05 | 2.0% | 0.1% |
| O=C1CCN2CCN(CC2)Cc2cccc(c2)Nc2ncnc(n2)-c2ccnc(c2)NCCCN1 [Compound 13, 1,8,10,12,17,19,23,27,33-Nonaazapentacyclo[25.2.2.1˜3,7˜0.1˜9.13˜1˜14.18˜]tetratriaconta-3(34), 4,6,9(33), 10,12,14(32), 15,17-nonaen-24-one] |  | 3123 | 2.44E+07 | 20.8% | 7.1% |
| O=C1NCCCc2cncc(c2)-c2ncnc(n2)Nc2cccc(c2)CN2CCCC1C2 (stereo not shown) [Compound 17, 3,5,7,14,20,26,31-Heptaazapentacyclo[22.3.1.1-2,6˜1˜8,12˜1˜14,18˜]hentriaconta-1(28), 2(31), 3,5,8(30), 9,11,24,26-nonaen-19-one] | 23.6 % of positive control |  |  |  |  |
| O=C1NCCCc2cncc(c2)-c2ncnc(n2)Nc2cc(Cl)cc(c2)CN2CCCC1C2 (stereo not shown) [Compound 37, 10-Chloro-3,5,7,14,20,26,31-heptaazapentacyclo[22.3.1.1˜2,6˜0.1˜8,12˜0.1˜14,18˜]hentriaconta-1(28), 2(31), 3,5,8(30), 9,11,24,26-nonaen-19-one] |  | 4187 | 3.11E+07 | 26.4% | 8.8% |
| CN1CCCC(=O)NCCCc2cncc(c2)-c2ncnc(n2)Nc2cccc(c2)C1 [Compound 20, 14-Methyl-3,5,7,14,19,25,29-heptaazatetracyclo[21.3.1.1˜2,6˜0.1˜8,12˜]nonacosa-1(27), 2(29), 3,5,8(28), 9,11,23,25-nonaen-18-one] |  | 2793 | 6.77E+06 | 17.6% | 1.9% |
| O=C1CCN2CCN(CC2)Cc2cccc(c2)Nc2ncnc(n2)-c2cncc(c2)CCCN1 [Compound 23, 1,8,10,12,16,22,26,32-Octaazapentacyclo[24.2.2.1-3,7˜0.1˜9,13˜0.1˜14,18˜]tritriaconta-3(33), 4,6,9(32), 10,12,14(31), 15,17-nonaen-23-one] | 29.8 % of positive control | 8758 | 1.16E+08 | 58.4% | 33.7% |
| CN1CCC(=O)NCCCc2cncc(c2)-c2ncnc(n2)Nc2cccc(c2)C1 [Compound 19, 14-Methyl-3,5,7,14,18,24,28-heptaazatetracyclo[20.3.1.1˜2,6˜0.1˜8,12˜]octacosa-1(26), 2(28), 3,5,8(27), 9,11,22,24-nonaen-17-one] | 69.5 % of positive control | 12569 | 2.40E+08 | 83.8% | 69.5% |
| CCN1CC(=O)NCCCc2cncc(c2)-c2ncnc(n2)Nc2cc(Cl)cc(c2)C1 [Compound 35, 10-Chloro-14-ethyl-3,5,7,14,17,23,27-heptaazatetracyclo[19.3.1.1˜2,6˜0.1˜8,12]Theptacosa-1(25), 2(27), 3,5,8(26), 9,11,21,23-nonaen-16-one] | 33.7 % of positive control | 7746 | 1.35E+08 | 48.8% | 38.0% |
| CCN1CC(=O)NCCCc2cc(ccc2F)-c2ncnc(n2)Nc2cc(Cl)cc(c2)C1 [Compound 25, 10-Chloro-14-ethyl-22-fluoro-3,5,7,14,17,27-hexaazatetracyclo[19.3.1.1˜2,6˜0.1˜8,12˜]heptacosa-1(25), 2(27), 3,5,8(26), 9,11,21,23-nonaen-16-one] |  | 3879 | 1.76E+07 | 24.4% | 5.0% |
| CCN1CC(=O)NCCCc2cccc(c2)-c2ncnc(n2)Nc2cccc(c2)C1 [Compound 15, 14-Ethyl-3,5,7,14,17,27-hexaazatetracyclo[19.3.1.1˜2,6˜1-8.12˜]heptacosa-1(25), 2(27), 3,5,8(26), 9,11,21,23-nonaen-16-one] |  | 4383 | 3.57E+07 | 28.7% | 10.6% |
| O=C1NCCCc2cncc(c2)-c2ncnc(n2)Nc2cccc(c2)CN2CCC[C@@H]12 [Compound 18, (18S)-3,5,7,14,20,26,30-Heptaazapentacyclo[22.3.1.1˜2,6˜1˜8,12˜0.0˜14,18˜]triaconta-1(28), 2(30), 3,5,8(29), 9,11,24,26-nonaen-19-one] |  | 1921 | 2.94E+07 | 13.8% | 9.5% |
| C=CCN1CC(=O)NCCCc2cncc(c2)-c2ncnc(n2)Nc2cccc(c2)C1 [Compound 40, 14-Prop-2-en-1-yl-3,5,7,14,17,23,27-heptaazatetracyclo[19.3.1.1˜2.6˜0.1˜8,12˜]heptacosa-1(25), 2(27), 3,5,8(26), 9,11,21,23-nonaen-16-one] | 52.2 % of positive control |  |  |  |  |
